Laboratory results published in patent publication US20120309706A1, “COMBINED TREATMENT OF PANCREATIC CANCER WITH GEMCITABINE AND MASITINIB” (AB SCIENCE, priority 2010, published 2012).
Where two headings read alike, the source gives them in different places. Marks after values point to notes of the source that are not given here.

Tests used:
Capan-2 = assay: WST-1 proliferation/survival assay, Capan-2; type: cell-based, human; details: Capan-2, single agent, 1% FCS
Experimental: (§1) Sensitivity of pancreatic tumour cell lines to masitinib or gemcitabine as single agents, or in combination, was assessed using WST-1 proliferation assays. Four cell lines were tested for their sensitivity to masitinib (A) or gemcitabine (B). […] (D) Sensitivity of resistant Mia Paca-2 cells to various tyrosine kinase inhibitors alone (top) or in combination with gemcitabine (bottom) was analyzed in WST-1 proliferation assays.
(§2) Pancreatic cancer cells lines (Mia Paca-2, Panc-1, BxPC-3 and Capan-2) were obtained from Dr. Juan Iovanna (Inserm, France). Cells were maintained in RPMI (BxPC-3, Capan-2) or DMEM (Mia Paca-2, Panc-1) medium containing glutamax-1 (Lonza), supplemented with 100 U/ml penicillin/100 μg/ml streptomycin, and 10% foetal calf serum (FCS) (AbCys, Lot S02823S1800). Expression of tyrosine kinases was determined by RT-PCR using Hot Star Taq (Qiagen GmbH, Hilden, Germany) in a 2720 Thermal Cycler (Applied Biosystems).
(§3) Cytotoxicity of masitinib and gemcitabine was assessed using a WST-1 proliferation/survival assay (Roche diagnostic) in growth medium containing 1% FCS. Treatment was started with the addition of the respective drug. […] After 72 hours WST-1 reagent was added and incubated with the cells for 4 hours before absorbance measurement at 450 nm in an EL800 Universal Microplate Reader (Bio-Tek Instruments Inc.). Media alone was used as a blank and proliferation in the absence of compounds served as positive control. Results are representative of three/four experiments. The masitinib sensitisation index is the ratio of the IC50 of gemcitabine against the IC50 of the drug combination.

Panc-1 = assay: WST-1 proliferation/survival assay, Panc-1; type: cell-based; details: Homo sapiens
Experimental: as §1, §2, §3

pancreatic cancer = details: cited from earlier work
Mia Paca-2 cells [1] = assay: Gene expression profiling (Affymetrix U133 Plus 2.0 microarrays) and pathway analysis; type: cell-based, human; details: for down-regulated genes / up-regulated genes: fold-change threshold of 2; for deregulated genes: fold-change threshold of 2, treated/untreated; for deregulated genes specific to the treatment: pathway analysis, Ingenuity
Experimental: Gene expression profiling of cell lines (from 2 μg RNA) was assessed using whole-genome Affymetrix U133 Plus 2.0 human oligonucleotide microarrays. Generation of expression matrices, data annotation, filtering and processing have been previously described [Giroux V et al., 2006 Clin Cancer Res 12: 235-241]. Microarray statistics and cluster analysis were performed by the Robust Multichip Average method in R using Bioconductor and using the Cluster and TreeView programs. Drug response signatures were generated by differential analysis, which compared the expression profile of each treated cell line with that of the untreated cell line by measuring the fold-change (treated/untreated) of each probe set. The lists of differential genes were interrogated using the Ingenuity Pathway Analysis software (Version 5.5.1-1002; Ingenuity Systems, Redwood City, Calif.) with a significance threshold for the corrected p-value<0.05. MIAME compliant array data can be accessed at (www.ebi.ac.uk/arrayexpress) using the accession number GSE17987.
Whole-genome clustering of the four cell samples sorted them into two opposite clusters (data not shown). The two treatment conditions with gemcitabine clustered together (left cluster), whereas cells treated with masitinib alone clustered with the untreated cells (right cluster). […] This was confirmed by the differential analysis of expression profile. […] These drug response expression signatures were characterised via pathway analysis using Ingenuity software. […] This pathway is involved in pancreatic development and re-activation of this signalling system has been implicated in pancreatic carcinoma with reported nuclear localisation of the downstream effector β-catenin. […] Three other pathways altered to a lesser extent included: ERK/MAPK Signalling, CDK5 Signalling, and PI3K/AKT Signalling (p=0.016, 0.025, 0.039, respectively).

BxPC-3 = assay: WST-1 proliferation/survival assay, BxPC-3; type: cell-based, human; details: BxPC-3, single agent, 1% FCS
Experimental: as §1, §2
Cytotoxicity of masitinib and gemcitabine was assessed using a WST-1 proliferation/survival assay (Roche diagnostic) in growth medium containing 1% FCS. Treatment was started with the addition of the respective drug. […] After 72 hours WST-1 reagent was added and incubated with the cells for 4 hours before absorbance measurement at 450 nm in an EL800 Universal Microplate Reader (Bio-Tek Instruments Inc.). […]

[2] = test system: Mia Paca-2 pancreatic tumours; assay: Nog-SCID mouse model of human pancreatic cancer; type: in vivo, Nog-SCID mice; details: for Tumour volume, Median: following 28 days of treatment (day 56)
Experimental: Mia Paca-2 tumour cells (10^7) were injected into the flank of Nog-SCID mice. Treatment was initiated 28 days after tumour cell injection. The different groups were treated with either: twice weekly injections of gemcitabine (i.p. 50 mg/kg), daily oral masitinib (100 mg/kg), water (control), or combined daily oral masitinib (100 mg/kg) and twice weekly injections of gemcitabine. Mice were treated for 56 days.
Male Nog-Scid mice (7 weeks old) were obtained from internal breeding and were housed under specific pathogen-free conditions at 20±1° C. in a 12-hour light/12-hour dark cycle and ad libitum access to food and filtered water. Mia Paca-2 cells were cultured as described above. At day 0 (D0), mice were injected with 107 Mia Paca-2 cells in 200 μl PBS into the right flank. Tumours were allowed to grow for 1.5 to 4 weeks until the desired tumour size was reached (˜200 mm3). At day 28, animals were allocated into four treatment groups (n=7 to 8 per group), ensuring that each group's mean body weight and tumour volume were well matched, and treatment was initiated for a duration of 4 to 5 weeks. Treatments consisted of either: a) daily sterile water for the control group, b) an intraperitoneal (i.p.) injection of 50 mg/kg gemcitabine twice a week, c) daily gavage with 100 mg/kg masitinib, or d) combined i.p injection of 50 mg/kg gemcitabine twice a week and daily gavage with 100 mg/kg masitinib. Tumour size was measured with callipers and tumour volume was estimated using the formula: volume=(length×width2)/2. The tumour growth inhibition ratio was calculated as (100)×(median tumour volume of treated group)/(median tumour volume of control group).
Relative changes in tumour volumes were compared between treatment groups using a variance analysis (ANOVA). Normality of relative changes in tumour volumes between day 28 and day 56 was first tested using the Shapiro-Wilk test of normality. […]
The tumour size was monitored every 7 days until day 56, after which time the animals were sacrificed.

Mia Paca-2 = assay: WST-1 proliferation/survival assay, Mia Paca-2; type: cell-based, human; details: for IC50: Homo sapiens; for response of Mia Paca-2 cells to gemcitabine after pre-incubation with TKI: 10 μM imatinib or dasatinib, compared to masitinib
Experimental: as §1, §2, §3
Comparison of masitinib to other TKIs for their potential to sensitize gemcitabine-resistant pancreatic cancer cells: Similar TKI plus gemcitabine combination experiments to those described above were performed with gemcitabine-resistant Mia Paca-2 cells to compare masitinib with imatinib (Gleevec™, STI-571; Novartis, Basel, Switzerland), a TKI targeting ABL, PDGFR, and c-Kit); and dasatinib (Sprycel, Bristol-Myers Squibb), a TKI targeting SRC, ABL, PDGFR, and c-Kit.

Mia Paca-2 cells [3] = assay: In vitro tyrosine phosphorylation assay (western blot, anti-pTyr); type: cell-based, human; details: 6 hours, at 1 μM and beyond
Experimental: (A) Messenger RNA expression of various receptor and cytoplasmic tyrosine kinases was analyzed by RT-PCR. Universal human reference total RNA was used as positive control for primers and the ubiquitous β-glucoronidase (GUS) served as an internal control for all RT-PCR reactions. (B) Tyrosine phosphorylation of proteins in response to masitinib. Mia Paca-2 cells (5×10^6) were treated for 6 hours at 37° C. with various concentrations of masitinib. Total cell lysates were prepared and tyrosine phosphorylation was analyzed by western blot with antibodies against phosphotyrosine (anti-pTyr). […] MW=molecular weight. […] Proteins (20 μg) were resolved by SDS-PAGE 10%, followed by western blotting and immunostaining. The following primary antibodies were used: rabbit anti-phospho-GRB2 antibody (sc-255 1:1000, Santa Cruz, Calif.), and anti-phosphotyrosine antibody (4G10 1:1000, Cell Signalling Technology, Ozyme, France). […] Immunoreactive bands were detected using enhanced chemiluminescent reagents (Pierce, USA). To estimate the range of masitinib concentration necessary to sensitize pancreatic tumor cell lines to chemotherapy, we assessed the ability of masitinib to block protein tyrosine phosphorylation by western blot analysis in cell lysates. […]

[4] = Masitinib clearance half-life; details: human, in vivo
From the text: At the cut-off date for safety (17 Oct. 2008), all 22 patients enrolled had experienced at least one dose of masitinib. […] One patient reported a masitinib-related grade 4 neutropenia. The most common masitinib-related, haematological grade 3 AEs were anaemia (22.7%), lymphopenia (22.7%), neutropenia (18.2%) and leucopoenia (18.2%). The most common, masitinib-related, non-haematological grade 3 AE was asthenia (13.6% of patients). […] One patient's death was reported to be due to several AEs (two syncopes, severe abdominal pain, hypotension, grade 2 anemia, acute renal failure and respiratory distress syndrome) and was suspected to be related to masitinib at the time of occurrence. However, masitinib had been interrupted for 6 days before these fatal AEs occurred. […] Thus, the death of this patient is most unlikely related to masitinib. Four other deaths occurred during this study but none were suspected to be treatment related.

FAK = FAK (Homo sapiens, UniProt Q05397); assay: FAK activity, preliminary in vitro data; type: biochemical
From the text: Altogether, this could provide a mechanism of action for masitinib on pancreatic cancer through the reduction of tumour progression or the inhibition of mast cell migration and activation, or both.

[5] = Panc-1, single agent, 72 hours, 1% FCS, read-out: IC50
[6] = Mia Paca-2, single agent, 72 hours, 1% FCS, read-out: IC50

Sequence of FAK (Q05397 whole entry): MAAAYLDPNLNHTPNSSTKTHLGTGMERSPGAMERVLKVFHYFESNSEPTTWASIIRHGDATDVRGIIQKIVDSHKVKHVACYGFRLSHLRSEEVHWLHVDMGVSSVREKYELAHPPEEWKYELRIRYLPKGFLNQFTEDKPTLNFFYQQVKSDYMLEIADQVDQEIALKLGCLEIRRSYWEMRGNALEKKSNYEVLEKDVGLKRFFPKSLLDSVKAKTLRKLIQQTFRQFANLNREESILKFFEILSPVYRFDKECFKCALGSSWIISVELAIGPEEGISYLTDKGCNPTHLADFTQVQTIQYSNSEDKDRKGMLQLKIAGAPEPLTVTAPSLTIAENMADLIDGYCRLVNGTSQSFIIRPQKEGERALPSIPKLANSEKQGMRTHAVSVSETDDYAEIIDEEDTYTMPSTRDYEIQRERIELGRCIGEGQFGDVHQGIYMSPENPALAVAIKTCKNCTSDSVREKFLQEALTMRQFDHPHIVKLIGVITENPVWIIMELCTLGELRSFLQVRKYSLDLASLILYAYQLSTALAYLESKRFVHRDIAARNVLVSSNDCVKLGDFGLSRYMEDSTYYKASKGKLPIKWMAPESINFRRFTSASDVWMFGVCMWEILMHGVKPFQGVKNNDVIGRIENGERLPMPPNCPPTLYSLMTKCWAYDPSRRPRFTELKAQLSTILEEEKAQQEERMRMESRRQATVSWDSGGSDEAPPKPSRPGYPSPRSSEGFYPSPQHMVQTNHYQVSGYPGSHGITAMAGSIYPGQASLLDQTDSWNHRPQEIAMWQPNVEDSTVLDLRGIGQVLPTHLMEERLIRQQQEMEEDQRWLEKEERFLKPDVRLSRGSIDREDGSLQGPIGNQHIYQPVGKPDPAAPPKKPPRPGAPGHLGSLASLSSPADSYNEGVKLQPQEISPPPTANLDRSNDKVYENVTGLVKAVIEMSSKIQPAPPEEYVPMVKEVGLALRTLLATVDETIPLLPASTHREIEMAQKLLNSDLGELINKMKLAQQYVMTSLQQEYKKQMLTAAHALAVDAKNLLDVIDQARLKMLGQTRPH

SMILES: Nc1ccn(C2OC(CO)C(O)C2(F)F)c(=O)n1 (centres unmarked) [Gemcitabine, 4-amino-1-[3,3-difluoro-4-hydroxy-5-(hydroxymethyl)tetrahydrofuran-2-yl]-1H-pyrimidin-2-one]
- IC50 (Capan-2; 72 hours): 2 µM
- IC50 (Capan-2; Homo sapiens, Capan-2, 72 h): 2 to 20 µM
- IC50 (Panc-1; Panc-1, gemcitabine monotherapy, read-out: IC50 (resistance)): > 2500 µM
- IC50 (Panc-1; [5]): > 10 µM
- medium TTP (pancreatic cancer; Burris et al. 1997, advanced pancreatic population (locally advanced and metastatic)): 2.33 months
- TTP threshold (pancreatic cancer; Storniolo et al. 1999, solely locally advanced patients): 4.1 months
- 1-year survival rate (pancreatic cancer; clinical trial of erlotinib plus gemcitabine versus gemcitabine monotherapy, p=0.023): 17%
- median OS (pancreatic cancer; clinical trial of erlotinib plus gemcitabine versus gemcitabine monotherapy): 5.91 months
- 12-month survival rates, published (pancreatic cancer; comparison): 21%
- median OS, published (pancreatic cancer; comparison): 6 months
- 1-year survival rate (pancreatic cancer; standard gemcitabine therapy): 21%
- median overall survival (OS) (pancreatic cancer; standard gemcitabine therapy, locally advanced, unresectable, or metastatic pancreatic adenocarcinoma): 6 months
- down-regulated genes (Mia Paca-2 cells [1]): 113 genes
- up-regulated genes (Mia Paca-2 cells [1]): 1048 genes
- deregulated genes (Mia Paca-2 cells [1]): 1161 genes
- deregulated genes specific to the treatment (Mia Paca-2 cells [1]): 818 genes
- IC50 (BxPC-3; 72 hours): 2 to 20 µM
- tumour growth between day 35 and 49 ([2]; FIG. 3): stabilization of tumour growth
- Tumour volume, Median [2]: 662* mm^3
- IC50 (Mia Paca-2; Mia Paca-2, gemcitabine monotherapy, read-out: IC50 (resistance)): > 2500 µM
- IC50 (Mia Paca-2; [6]): > 10 µM

SMILES: Cc1ccc(NC(=O)c2ccc(CN3CCN(C)CC3)cc2)cc1Nc1nc(-c2cccnc2)cs1 [Masitinib, 4-(4-methylpiperazin-1-ylmethyl)-N-[4-methyl-3-(4-pyridin-3ylthiazol-2-ylamino)phenyl]benzamide]
- IC50 (Capan-2; Homo sapiens, Capan-2, 72 h): 5 to 10 µM
- IC50 (Panc-1; [5]): 5 to 10 µM
- protein tyrosine phosphorylation (western blot) (Mia Paca-2 cells [3]): clearly inhibited tyrosine phosphorylation
- down-regulated genes (Mia Paca-2 cells [1]): 29 genes
- up-regulated genes (Mia Paca-2 cells [1]): 325 genes
- deregulated genes (Mia Paca-2 cells [1]): 354 genes
- deregulated genes specific to the treatment (Mia Paca-2 cells [1]): 201 genes
- half-life [4]: 17 h
- IC50 (BxPC-3; Homo sapiens, BXPC-3, 72 h): 5 to 10 µM
- Tumour volume, Median [2]: 865 mm^3
- FAK auto-activation (FAK): partially inhibits FAK auto-activation
- reduces FAK activity (FAK; masitinib 1 μM): 21%
- response of Mia Paca-2 cells to gemcitabine after pre-incubation with TKI (Mia Paca-2): able to restore sensitivity to gemcitabine
- IC50 (Mia Paca-2; [6]): 5 to 10 µM

SMILES: Cc1nc(Nc2ncc(C(=O)Nc3c(C)cccc3Cl)s2)cc(N2CCN(CCO)CC2)n1 [dasatinib]
- cells remaining resistant (Mia Paca-2; Mia Paca-2, dasatinib alone >0.1 μM): < 50%

SMILES: Cc1ccc(NC(=O)c2ccc(CN3CCN(C)CC3)cc2)cc1Nc1nccc(-c2cccnc2)n1 [imatinib]
- response of Mia Paca-2 cells to gemcitabine after pre-incubation with TKI (Mia Paca-2): did not result in an increased response
- Mia Paca-2 cell proliferation, TKI alone (Mia Paca-2; imatinib alone 10 μM): not inhibited
